Experimental findings from ChEMBL document CHEMBL5291721, “A preclinical secondary pharmacology resource illuminates target-adverse drug reaction associations of marketed drugs” (Nat Commun, 2023) are described below.

A word on the AC50: it is the midpoint of the concentration-response curve, whichever way the signal moves.

Assay [1] has as its target T1, Type-1 angiotensin II receptor (Homo sapiens, UniProt P30556).
T1 sequence (P30556 whole entry): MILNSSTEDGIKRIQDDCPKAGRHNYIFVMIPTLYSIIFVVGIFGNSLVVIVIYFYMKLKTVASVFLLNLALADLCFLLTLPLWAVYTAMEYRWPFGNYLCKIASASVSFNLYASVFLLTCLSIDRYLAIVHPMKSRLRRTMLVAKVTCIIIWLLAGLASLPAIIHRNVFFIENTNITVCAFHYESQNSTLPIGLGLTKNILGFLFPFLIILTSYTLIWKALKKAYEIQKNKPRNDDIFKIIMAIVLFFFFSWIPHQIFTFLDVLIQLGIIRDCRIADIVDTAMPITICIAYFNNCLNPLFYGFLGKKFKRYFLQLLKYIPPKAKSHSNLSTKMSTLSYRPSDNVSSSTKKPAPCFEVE

In assay [2] the target is T2, Progesterone receptor (Homo sapiens, UniProt P06401).
T2 sequence (P06401 whole entry): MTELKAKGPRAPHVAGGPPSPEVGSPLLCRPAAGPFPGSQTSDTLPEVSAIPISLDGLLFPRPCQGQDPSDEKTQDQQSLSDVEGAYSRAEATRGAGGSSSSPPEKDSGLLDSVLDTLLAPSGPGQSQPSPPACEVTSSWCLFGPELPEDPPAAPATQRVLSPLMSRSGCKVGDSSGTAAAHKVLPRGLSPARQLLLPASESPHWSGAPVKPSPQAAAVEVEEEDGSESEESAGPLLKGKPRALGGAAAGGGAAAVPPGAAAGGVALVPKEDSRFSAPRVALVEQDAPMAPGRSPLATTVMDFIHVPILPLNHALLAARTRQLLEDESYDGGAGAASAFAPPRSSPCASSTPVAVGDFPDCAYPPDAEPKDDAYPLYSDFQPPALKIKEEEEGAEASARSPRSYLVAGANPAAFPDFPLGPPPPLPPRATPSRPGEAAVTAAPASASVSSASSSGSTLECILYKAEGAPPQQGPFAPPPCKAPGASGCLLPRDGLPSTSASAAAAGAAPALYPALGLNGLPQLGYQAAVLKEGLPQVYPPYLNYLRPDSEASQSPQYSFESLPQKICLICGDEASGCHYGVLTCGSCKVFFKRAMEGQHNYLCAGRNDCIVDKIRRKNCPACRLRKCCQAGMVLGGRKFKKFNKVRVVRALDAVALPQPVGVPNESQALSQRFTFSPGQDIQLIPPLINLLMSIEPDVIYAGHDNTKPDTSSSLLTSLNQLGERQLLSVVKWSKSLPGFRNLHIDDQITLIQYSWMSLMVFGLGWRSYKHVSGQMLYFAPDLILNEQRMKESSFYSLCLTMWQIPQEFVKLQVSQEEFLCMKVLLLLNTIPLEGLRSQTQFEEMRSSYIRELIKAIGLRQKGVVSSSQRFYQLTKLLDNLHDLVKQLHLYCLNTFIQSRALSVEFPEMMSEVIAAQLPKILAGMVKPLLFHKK
The class given is functional.

Assay [3] has as its target T3, 5-hydroxytryptamine receptor 2A (Homo sapiens, UniProt P28223). The class given is functional, cell-based.
Assay [4] deals with T4, Prostaglandin G/H synthase 1 (Rattus norvegicus, UniProt Q63921).
T4 sequence (Q63921 whole entry): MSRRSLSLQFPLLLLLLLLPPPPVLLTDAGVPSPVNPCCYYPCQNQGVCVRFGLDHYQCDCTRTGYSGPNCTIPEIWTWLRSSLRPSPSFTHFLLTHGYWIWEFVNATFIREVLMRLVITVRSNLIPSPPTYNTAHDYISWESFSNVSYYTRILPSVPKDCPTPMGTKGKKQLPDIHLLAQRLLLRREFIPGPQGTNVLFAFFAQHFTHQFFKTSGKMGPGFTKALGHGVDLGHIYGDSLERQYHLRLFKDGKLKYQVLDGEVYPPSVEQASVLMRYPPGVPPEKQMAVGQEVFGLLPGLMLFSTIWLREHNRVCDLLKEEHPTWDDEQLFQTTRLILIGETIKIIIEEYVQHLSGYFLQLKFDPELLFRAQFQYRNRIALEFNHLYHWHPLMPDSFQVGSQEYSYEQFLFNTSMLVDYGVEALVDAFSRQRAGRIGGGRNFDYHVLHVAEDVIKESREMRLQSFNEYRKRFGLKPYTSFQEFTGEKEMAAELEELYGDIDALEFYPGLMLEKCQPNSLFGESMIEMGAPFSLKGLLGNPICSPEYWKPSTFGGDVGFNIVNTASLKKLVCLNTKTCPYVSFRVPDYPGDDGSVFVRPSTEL
The class given is functional.

Assay [5] has as its target T2, Progesterone receptor. The class given is functional. This is another data set of the same source.
Assay [6] concerns the target T5, Adenosine receptor A3 (Homo sapiens, UniProt P0DMS8).
T5 sequence (P0DMS8 whole entry): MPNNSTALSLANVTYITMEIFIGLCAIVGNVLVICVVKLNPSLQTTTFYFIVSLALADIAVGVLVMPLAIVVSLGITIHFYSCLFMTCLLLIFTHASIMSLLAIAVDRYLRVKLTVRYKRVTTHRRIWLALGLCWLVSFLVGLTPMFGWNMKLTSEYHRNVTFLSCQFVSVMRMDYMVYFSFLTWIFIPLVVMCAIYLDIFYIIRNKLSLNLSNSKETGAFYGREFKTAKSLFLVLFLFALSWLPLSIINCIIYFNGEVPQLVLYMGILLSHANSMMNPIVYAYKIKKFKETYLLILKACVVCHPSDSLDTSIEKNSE

For assay [7], the target named is Voltage-dependent L-type calcium channel subunit alpha-1C (Rattus norvegicus, UniProt P22002). The class given is functional.
The target in assay [8] is T3, 5-hydroxytryptamine receptor 2A. The assay is classed as functional, cell-based. This is another data set of the same source.
For assay [9], the target named is T6, Gastrin/cholecystokinin type B receptor (Homo sapiens, UniProt P32239).
T6 sequence (P32239 whole entry): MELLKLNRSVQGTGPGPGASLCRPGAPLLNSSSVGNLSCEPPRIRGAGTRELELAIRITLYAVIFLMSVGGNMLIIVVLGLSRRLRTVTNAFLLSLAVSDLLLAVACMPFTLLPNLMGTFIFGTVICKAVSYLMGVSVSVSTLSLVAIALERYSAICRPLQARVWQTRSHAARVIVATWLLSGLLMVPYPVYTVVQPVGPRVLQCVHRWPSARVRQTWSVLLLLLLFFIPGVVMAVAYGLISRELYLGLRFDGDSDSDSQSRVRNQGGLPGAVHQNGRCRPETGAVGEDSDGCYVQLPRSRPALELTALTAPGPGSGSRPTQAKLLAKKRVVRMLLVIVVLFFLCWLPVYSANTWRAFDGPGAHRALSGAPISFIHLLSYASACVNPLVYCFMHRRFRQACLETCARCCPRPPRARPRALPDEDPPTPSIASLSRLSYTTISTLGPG
Further: assay procedure not described here.

T3 sequence (P28223 whole entry): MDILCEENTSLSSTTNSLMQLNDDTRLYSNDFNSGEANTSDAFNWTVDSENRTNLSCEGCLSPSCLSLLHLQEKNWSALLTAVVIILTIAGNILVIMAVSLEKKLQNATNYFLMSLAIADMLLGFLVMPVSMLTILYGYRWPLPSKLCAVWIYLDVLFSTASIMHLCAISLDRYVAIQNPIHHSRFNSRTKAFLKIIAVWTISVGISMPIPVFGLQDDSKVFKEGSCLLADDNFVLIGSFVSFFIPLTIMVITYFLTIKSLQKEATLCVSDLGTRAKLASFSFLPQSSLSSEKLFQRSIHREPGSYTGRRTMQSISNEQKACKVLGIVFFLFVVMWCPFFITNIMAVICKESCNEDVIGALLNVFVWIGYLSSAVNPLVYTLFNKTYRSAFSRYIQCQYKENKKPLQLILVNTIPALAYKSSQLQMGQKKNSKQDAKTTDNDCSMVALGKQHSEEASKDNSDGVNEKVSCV
Voltage-dependent L-type calcium channel subunit alpha-1C, sequence (P22002 whole entry): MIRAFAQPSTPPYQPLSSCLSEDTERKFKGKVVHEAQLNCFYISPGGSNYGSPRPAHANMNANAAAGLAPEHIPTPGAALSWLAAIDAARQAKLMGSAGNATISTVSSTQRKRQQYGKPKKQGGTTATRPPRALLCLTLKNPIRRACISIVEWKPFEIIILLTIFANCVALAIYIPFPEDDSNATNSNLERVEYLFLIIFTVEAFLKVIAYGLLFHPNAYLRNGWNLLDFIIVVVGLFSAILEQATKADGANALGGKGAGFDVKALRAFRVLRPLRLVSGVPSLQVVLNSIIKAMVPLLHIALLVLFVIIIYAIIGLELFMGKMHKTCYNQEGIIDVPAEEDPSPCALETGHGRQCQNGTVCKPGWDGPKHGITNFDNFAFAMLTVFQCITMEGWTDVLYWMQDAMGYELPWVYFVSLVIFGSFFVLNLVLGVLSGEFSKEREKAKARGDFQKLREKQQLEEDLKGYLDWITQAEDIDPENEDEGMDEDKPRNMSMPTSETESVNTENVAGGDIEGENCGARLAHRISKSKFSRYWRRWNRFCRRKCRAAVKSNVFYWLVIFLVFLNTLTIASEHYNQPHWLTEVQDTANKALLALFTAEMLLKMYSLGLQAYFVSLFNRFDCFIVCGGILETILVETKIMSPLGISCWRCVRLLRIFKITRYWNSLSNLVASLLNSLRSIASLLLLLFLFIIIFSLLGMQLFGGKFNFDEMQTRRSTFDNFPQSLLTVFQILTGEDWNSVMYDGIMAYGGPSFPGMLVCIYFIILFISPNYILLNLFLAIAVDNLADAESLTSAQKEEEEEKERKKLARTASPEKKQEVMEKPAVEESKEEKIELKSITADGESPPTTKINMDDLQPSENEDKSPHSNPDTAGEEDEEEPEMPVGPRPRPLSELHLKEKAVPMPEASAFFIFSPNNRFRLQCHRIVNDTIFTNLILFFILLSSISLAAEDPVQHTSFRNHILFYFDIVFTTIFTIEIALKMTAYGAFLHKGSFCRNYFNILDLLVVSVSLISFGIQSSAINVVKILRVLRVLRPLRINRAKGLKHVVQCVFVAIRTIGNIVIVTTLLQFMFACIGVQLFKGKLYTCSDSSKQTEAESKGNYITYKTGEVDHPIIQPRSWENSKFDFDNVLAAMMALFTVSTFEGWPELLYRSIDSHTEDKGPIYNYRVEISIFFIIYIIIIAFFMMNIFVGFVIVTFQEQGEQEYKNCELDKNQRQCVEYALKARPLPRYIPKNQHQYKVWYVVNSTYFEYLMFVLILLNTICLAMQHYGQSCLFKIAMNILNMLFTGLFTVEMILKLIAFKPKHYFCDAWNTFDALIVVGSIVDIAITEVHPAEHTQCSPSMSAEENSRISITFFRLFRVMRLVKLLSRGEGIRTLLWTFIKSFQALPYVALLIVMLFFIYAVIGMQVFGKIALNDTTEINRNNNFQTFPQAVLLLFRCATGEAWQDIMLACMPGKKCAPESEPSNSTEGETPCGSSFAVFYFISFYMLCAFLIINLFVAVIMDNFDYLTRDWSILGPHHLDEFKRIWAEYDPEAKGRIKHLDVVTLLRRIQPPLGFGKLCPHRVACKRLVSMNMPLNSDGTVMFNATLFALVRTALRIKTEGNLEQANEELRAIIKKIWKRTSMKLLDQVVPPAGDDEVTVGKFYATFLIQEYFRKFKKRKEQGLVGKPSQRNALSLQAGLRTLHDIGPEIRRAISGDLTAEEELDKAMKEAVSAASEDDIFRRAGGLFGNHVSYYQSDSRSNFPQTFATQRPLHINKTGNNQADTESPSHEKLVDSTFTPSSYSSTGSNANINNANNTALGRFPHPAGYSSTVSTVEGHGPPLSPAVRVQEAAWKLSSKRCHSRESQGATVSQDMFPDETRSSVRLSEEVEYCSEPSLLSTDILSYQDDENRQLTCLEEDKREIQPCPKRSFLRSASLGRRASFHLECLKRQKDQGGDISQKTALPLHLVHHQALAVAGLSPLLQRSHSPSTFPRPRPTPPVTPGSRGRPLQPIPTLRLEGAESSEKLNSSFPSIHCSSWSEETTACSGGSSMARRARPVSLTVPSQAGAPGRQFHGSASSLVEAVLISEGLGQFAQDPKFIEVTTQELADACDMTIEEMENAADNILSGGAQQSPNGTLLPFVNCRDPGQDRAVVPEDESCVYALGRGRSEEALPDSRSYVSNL

Turning to `COc1cc2c(N)nc(N3CCN(C(=O)OCC(C)(C)O)CC3)nc2c(OC)c1OC` [TRIMAZOSIN], the half-maximal activity concentration (AC50) in assay [1], in assay [2], in [3], in assay [4], in [5] and in assay [6] was > 30 µM throughout. Besides, the concentration at half-maximal activity (AC50) in assay [7], in assay [8] and in assay [9] was > 30 µM throughout.
With `C=CCN1CCCC1CNC(=O)c1cc(S(N)(=O)=O)cc(OC)c1OC` (stereo not drawn) [VERALIPRIDE], the half-maximal activity concentration (AC50) was > 30 µM in [1]; > 30 µM in assay [2]; 24 µM in [3]; > 30 µM in assay [4]; > 30 µM in assay [5]; > 30 µM in assay [6]. The AC50 in [7], in assay [8] and in assay [9] was > 30 µM each time.
